Patent publication US7094911B2, “Biphenyl and biphenyl-analogous compounds as integrin antagonists” (Bayer Aktiengesellschaft, priority 1998, dated 2006)

Question: Which melting point does the source give for O=C(O)C[C@@H](NS(=O)(=O)c1cccc(-c2cccc(NC(=O)NCc3cccnc3)c2)c1)c1ccccc1 [Example 4.92] here?
Answer: 126 °C

Question: For C[C@@H](NS(=O)(=O)c1cccc(-c2cccc(NC(=O)NCC(F)(F)C(F)(F)F)c2)c1)C(=O)O [Example 4.93], which melting point is on record?
Answer: 112 °C

Question: Which melting point does the source give for CCCCNC(=O)Nc1cccc(-c2cccc(S(=O)(=O)N[C@H](CC(=O)O)c3ccccc3)c2)c1 [Example 4.94] here?
Answer: 152 °C

Question: For O=C(O)C[C@@H](NS(=O)(=O)c1cccc(-c2cccc(NC(=O)NCc3ccc(C(F)(F)F)cc3)c2)c1)c1ccccc1 [Example 4.95], which melting point is on record?
Answer: 186 °C

Question: Which melting point does the source give for CCCCNC(=O)Nc1cccc(-c2ccc(OC)c(S(=O)(=O)N[C@@H](CC(=O)O)c3ccccc3)c2)c1 [Example 4.96] here?
Answer: 156 °C

Question: Which melting point does the source give for COc1ccc(-c2cccc(NC(=O)NCc3ccc(F)cc3)c2)cc1S(=O)(=O)N[C@@H](CC(=O)O)c1ccccc1 [Example 4.97] here?
Answer: 162 °C

Question: For CCCNC(=O)Nc1ccc(-c2ccc(OC)c(S(=O)(=O)NC(CC(=O)O)c3ccccc3)c2)cc1 (centres unmarked) [Example 4.98], which melting point is on record?
Answer: 116 °C

Question: With COc1ccc(-c2cccc(NC(=O)Nc3nccs3)c2)cc1S(=O)(=O)NC(CC(=O)O)c1ccccc1 (centres unmarked) [Example 4.99] as the compound, how does the melting point read?
Answer: > 240 °C

Question: Which melting point does the source give for COc1ccc(-c2cccc(NC(=O)NCC(F)(F)F)c2)cc1S(=O)(=O)NC(CC(=O)O)c1ccccc1 (centres unmarked) [Example 4.100] here?
Answer: > 240 °C

Question: Which melting point does the source give for COc1ccc(-c2cccc(NC(=O)NCCSC(F)(F)F)c2)cc1S(=O)(=O)NC(CC(=O)O)c1ccccc1 (centres unmarked) [Example 4.101] here?
Answer: > 240 °C

Question: Which melting point does the source give for COc1ccc(-c2cccc(NC(=O)NCc3ccc(C(F)(F)F)cc3)c2)cc1S(=O)(=O)NC(CC(=O)O)c1ccccc1 (centres unmarked) [Example 4.102] here?
Answer: > 240 °C

Question: With COc1ccc(-c2cccc(NC(=O)/N=c3\[nH]c4ccc(C(=O)O)cc4[nH]3)c2)cc1S(=O)(=O)NC(CC(=O)O)c1ccccc1 (centres unmarked) [Example 4.103] as the compound, how does the melting point read?
Answer: > 240 °C

Question: For COc1ccc(-c2cccc(NC(=O)N=c3[nH]c4cc(C)c(C)cc4[nH]3)c2)cc1S(=O)(=O)NC(CC(=O)O)c1ccccc1 (centres unmarked) [Example 4.104], which melting point is on record?
Answer: > 240 °C

Question: With COc1ccc2[nH]/c(=N\C(=O)Nc3cccc(-c4ccc(OC)c(S(=O)(=O)NC(CC(=O)O)c5ccccc5)c4)c3)[nH]c2c1 (centres unmarked) [Example 4.105] as the compound, how does the melting point read?
Answer: > 240 °C

Question: With COc1ccc(-c2cccc(NC(=O)Nc3nncs3)c2)cc1S(=O)(=O)NC(CC(=O)O)c1ccccc1 (centres unmarked) [Example 4.106] as the compound, how does the melting point read?
Answer: > 240 °C

Question: Which melting point does the source give for CN(CC(=O)O)S(=O)(=O)c1cccc(-c2cccc(NC(=O)NC3CC3)c2)c1 [Example 6.11] here?
Answer: 117 °C

Question: With CCCNC(=O)Nc1cccc(-c2cccc(S(=O)(=O)N(C)CC(=O)O)c2)c1 [Example 6.12] as the compound, how does the melting point read?
Answer: 90 °C

Question: Which melting point does the source give for CN(CC(=O)O)S(=O)(=O)c1cccc(-c2cccc(NC(=O)N=c3[nH]c4ccccc4[nH]3)c2)c1 [Example 6.13] here?
Answer: 184 °C

Question: Which melting point does the source give for CN(CC(=O)O)S(=O)(=O)c1cccc(-c2cccc(NC(=O)Nc3ccncc3)c2)c1 [Example 6.14] here?
Answer: 142 °C

Question: Which melting point does the source give for N#C/N=C(\NCc1ccccc1)Nc1cccc(-c2cccc(S(=O)(=O)NC(CC(=O)O)c3ccccc3)c2)c1 (centres unmarked) [Example 10.1.5, 3-[(3′-{[(benzylamino)(cyanoimino)methyl]amino}[1,1′-biphenyl]-3-yl)sulfonylamino]-3-phenyl-propanoic acid] here?
Answer: 90 °C

Question: With N#C/N=C(/Nc1cccc(-c2cccc(S(=O)(=O)NC(CC(=O)O)c3ccccc3)c2)c1)NC1CC1 (centres unmarked) [Example 10.3.5, 3-[(3′-{[(cyclopropylamino)(cyanoimino)methyl]amino}[1,1′-biphenyl]-3-yl)sulfonylamino]-3-phenyl-propanoic acid] as the compound, how does the melting point read?
Answer: 120 °C

Question: With CC1(C)[C@H]2CCC1(CS(=O)(=O)N[C@@H](Cc1ccc(-c3cccc(N/C(=N/C#N)NC4CC4)c3)cc1)C(=O)O)C(=O)C2 [Example 10.5] as the compound, how does the melting point read?
Answer: 178 °C

Question: Which melting point does the source give for CCCN/C(=N\C#N)Nc1cccc(-c2ccc(C[C@H](NS(=O)(=O)c3c(C)cc(C)cc3C)C(=O)O)cc2)c1 [Example 10.6] here?
Answer: 184 °C

Question: Which melting point does the source give for Cc1cc(C)c(S(=O)(=O)N[C@@H](Cc2ccc(-c3cccc(N/C(=N/C#N)NCc4ccccc4)c3)cc2)C(=O)O)c(C)c1 [Example 10.8] here?
Answer: 169 °C

Question: Which melting point does the source give for Cc1cc(C)c(S(=O)(=O)N[C@@H](Cc2ccc(-c3cccc(N/C(=N/C#N)NCc4ccccn4)c3)cc2)C(=O)O)c(C)c1 [Example 10.9] here?
Answer: 174 °C (dec.)

Question: For Cc1cc(C)c(S(=O)(=O)N[C@@H](Cc2ccc(-c3cccc(N/C(=C/[N+](=O)[O-])NC4CC4)c3)cc2)C(=O)O)c(C)c1 [Example 12.1.5, (2S)-3-(3′-{[(E)-1-(cyclopropylamino)-2-nitroethenyl]amino}[1,1′-biphenyl]-4-yl)-2-[(mesitylsulfonyl)amino]-propanoic acid], which melting point is on record?
Answer: 149 °C

Question: For C=CCN/C(=C\[N+](=O)[O-])Nc1cccc(-c2ccc(C[C@H](NS(=O)(=O)CC34CC[C@@H](CC3=O)C4(C)C)C(=O)O)cc2)c1 [Example 12.5], which melting point is on record?
Answer: 150 °C (dec.)

Question: With C#CCN/C(=C\[N+](=O)[O-])Nc1cccc(-c2ccc(C[C@H](NS(=O)(=O)CC34CC[C@@H](CC3=O)C4(C)C)C(=O)O)cc2)c1 [Example 12.6] as the compound, how does the melting point read?
Answer: 185 °C (dec.)

Question: For CC1(C)[C@H]2CCC1(CS(=O)(=O)N[C@@H](Cc1ccc(-c3cccc(N/C(=C/[N+](=O)[O-])NCc4ccccn4)c3)cc1)C(=O)O)C(=O)C2 [Example 12.7], which melting point is on record?
Answer: 126 °C (dec.)

Question: For CC1(C)[C@H]2CCC1(CS(=O)(=O)N[C@@H](Cc1ccc(-c3cccc(N/C(=C/[N+](=O)[O-])NCc4cccnc4)c3)cc1)C(=O)O)C(=O)C2 [Example 12.8], which melting point is on record?
Answer: 170 °C

Question: With CC1(C)[C@H]2CCC1(CS(=O)(=O)N[C@@H](Cc1ccc(-c3cccc(N/C(=C/[N+](=O)[O-])NC4CCC4)c3)cc1)C(=O)O)C(=O)C2 [Example 12.9] as the compound, how does the melting point read?
Answer: 151 °C (dec.)

Question: For Cc1cc(C)c(S(=O)(=O)N[C@@H](Cc2ccc(-c3cccc(Nc4c(NC5CC5)c(=O)c4=O)c3)cc2)C(=O)O)c(C)c1 [Example 13.1.3, (2S)-3-(3′-{[2-(cyclopropylamino)-3,4-dioxo-1-cyclobuten-1-yl]-amino}[1,1′-biphenyl]-4-yl)-2-[(mesitylsulfonyl)amino]-propanoic acid], which melting point is on record?
Answer: 164 °C

Question: For O=C(O)CNS(=O)(=O)c1cccc(-c2cccc(Nc3c(NC4CC4)c(=O)c3=O)c2)c1 [Example 13.2], which melting point is on record?
Answer: 204 °C (dec.)

Question: Which melting point does the source give for Cc1cc(C)c(S(=O)(=O)N[C@@H](Cc2ccc(-c3cccc(Nc4c(NCc5ccccn5)c(=O)c4=O)c3)cc2)C(=O)O)c(C)c1 [Example 13.3] here?
Answer: 214 °C (dec.)

Question: Which melting point does the source give for Cc1cc(C)c(S(=O)(=O)N[C@@H](Cc2ccc(-c3cccc(Nc4c(NCc5ccccc5)c(=O)c4=O)c3)cc2)C(=O)O)c(C)c1 [Example 13.4] here?
Answer: 226 °C (dec.)

Question: Which melting point does the source give for CC1(C)[C@H]2CCC1(CS(=O)(=O)N[C@@H](Cc1ccc(-c3cccc(NC4=C(NC5CC5)C(=O)C4O)c3)cc1)C(=O)O)C(=O)C2 (some centres unmarked) [Example 13.5] here?
Answer: 152 °C

Question: With O=C(O)CC(NS(=O)(=O)c1cccc(-c2cccc(Nc3c(Nc4nc5ccccc5[nH]4)c(=O)c3=O)c2)c1)c1ccccc1 (centres unmarked) [Example 13.6] as the compound, how does the melting point read?
Answer: 191 °C (dec.)

Question: Which melting point does the source give for O=C(O)CC(NS(=O)(=O)c1cccc(-c2cccc(Nc3c(NC4CC4)c(=O)c3=O)c2)c1)c1ccccc1 (centres unmarked) [Example 13.7] here?
Answer: 214 °C (dec.)

Question: Which melting point does the source give for O=C(O)CC(NS(=O)(=O)c1cccc(-c2cccc(Nc3c(NCc4ccccn4)c(=O)c3=O)c2)c1)c1ccccc1 (centres unmarked) [Example 13.8] here?
Answer: 149 °C (dec.)

Question: For CS(=O)(=O)N[C@@H](Cc1ccc(-c2cccc(Nc3c(NC4CC4)c(=O)c3=O)c2)cc1)C(=O)O [Example 13.9], which melting point is on record?
Answer: 210 °C (dec.)

Question: For O=C(O)CC(NS(=O)(=O)c1cccc(-c2cccc(Nc3c(NCC(F)(F)F)c(=O)c3=O)c2)c1)c1cccnc1 (centres unmarked) [Example 13.11], which melting point is on record?
Answer: 219 °C (dec.)

Question: For O=C(O)CC(NS(=O)(=O)c1cccc(-c2cccc(Nc3nccs3)c2)c1)c1ccccc1 (centres unmarked) [Example 15.1.2, 3-phenyl-3-{[3′-(1,3-thiazol-2-ylamino)[1,1′-biphenyl]-3-yl]sulfonylamino}-propanoic acid], which melting point is on record?
Answer: 130 °C (dec.)

Question: With Cc1cc(C)c(S(=O)(=O)N[C@@H](Cc2ccc(-c3cccc(Nc4nc5ccccc5[nH]4)c3)cc2)C(=O)O)c(C)c1 [Example 16.1.3, (2S)-3-[3′-(1H-benzimidazol-2-ylamino)[1,1′-biphenyl]-4-yl]-2-[(mesitylsulfonyl)amino]propanoic acid] as the compound, how does the melting point read?
Answer: 190 °C (dec.)

Question: For Cc1cc(C)c(S(=O)(=O)N[C@@H](Cc2ccc(-c3cccc(Nc4n[s+]([O-])nc4NC4CC4)c3)cc2)C(=O)O)c(C)c1 (stereo partly drawn) [Example 17.1.3, (2S)-2-[(Mesitylsulfonyl)amino]-3-(3′-{[4-(cyclopropylamino)-1-oxo-1H-1[lambda]4,2,5-thiadiazol-3-yl]amino}[1,1′-biphenyl]-4-yl)-propanoic acid], which melting point is on record?
Answer: 180 °C (dec.)

Question: With COc1ccc(-c2cccc(CNc3ccccn3)c2)cc1S(=O)(=O)NC(CC(=O)O)c1ccccc1 (centres unmarked) [Example 18.3] as the compound, how does the melting point read?
Answer: 138 °C

Question: Which melting point does the source give for Cc1cc(C)c(S(=O)(=O)N[C@@H](Cc2ccc(-c3cccc(CNc4nc5ccccc5[nH]4)c3)cc2)C(=O)O)c(C)c1 [Example 18.4] here?
Answer: > 240 °C

Question: Which melting point does the source give for COc1ccc(-c2cccc(CNc3nc4ccccc4[nH]3)c2)cc1S(=O)(=O)NC(CC(=O)O)c1ccccc1 (centres unmarked) [Example 18.5] here?
Answer: > 240 °C

Question: With CCS(=O)(=O)N[C@@H](Cc1ccc(-c2cccc(CNc3ccccn3)c2)cc1)C(=O)O [Example 18.7] as the compound, how does the melting point read?
Answer: > 240 °C

Question: For O=C(O)[C@H](Cc1ccc(-c2cccc(CNc3ccccn3)c2)cc1)NS(=O)(=O)c1ccc(F)cc1 [Example 18.8], which melting point is on record?
Answer: > 240 °C

Question: For O=C(O)[C@H](Cc1ccc(-c2cccc(CNc3ccccn3)c2)cc1)NS(=O)(=O)c1cccs1 [Example 18.9], which melting point is on record?
Answer: > 240 °C

Question: Which melting point does the source give for O=C(O)[C@H](Cc1ccc(-c2cccc(CNc3ccccn3)c2)cc1)NS(=O)(=O)Cc1ccc(F)cc1 [Example 18.10] here?
Answer: > 240 °C

Question: Which melting point does the source give for O=C(O)[C@H](Cc1ccc(-c2cccc(CNc3ccccn3)c2)cc1)NS(=O)(=O)C1CC1 [Example 18.11] here?
Answer: > 240 °C

Question: For O=C(O)[C@H](Cc1ccc(-c2cccc(CNc3ccccn3)c2)cc1)NS(=O)(=O)c1c(F)cccc1F [Example 18.12], which melting point is on record?
Answer: > 240 °C
